# Measured values reported in ChEMBL document CHEMBL2203282, “1,4-naphthoquinone cations as antiplasmodial agents: hydroxy-, acyloxy-, and alkoxy-substituted analogues” (ACS Med Chem Lett, 2012).
# Tested on: Plasmodium falciparum
# Assay: Antiplasmodial activity against chloroquine-resistant Plasmodium falciparum W2 infected in human erythrocytes assessed as reduction in parasitemia after 48 hrs by flow cytometry analysis
# Assay type: functional, organism-based
# Conditions: W2, 48 h
row,SMILES,IC50 [nM]
1,CC1=C(OCCCCCC[P+](c2ccccc2)(c2ccccc2)c2ccccc2)C(=O)c2ccccc2C1=O,42.7
2,CC1=C(OC(=O)CCCCCCCCCC[P+](c2ccccc2)(c2ccccc2)c2ccccc2)C(=O)c2ccccc2C1=O,1380
3,CC(=O)OC1=C(CCCCCCCCCC[P+](c2ccccc2)(c2ccccc2)c2ccccc2)C(=O)c2ccccc2C1=O,3590
4,COc1ccc(C2=C(OCCC[P+](c3ccccc3)(c3ccccc3)c3ccccc3)C(=O)c3ccccc3C2=O)cc1,17.4
5,CC1=C(OCC(=O)OCCC[P+](c2ccccc2)(c2ccccc2)c2ccccc2)C(=O)c2ccccc2C1=O,1230
6,CC1=C(OCCCCCCCCCC[P+](c2ccccc2)(c2ccccc2)c2ccccc2)C(=O)c2ccccc2C1=O,119
7,O=C1C(O)=C(c2ccc(OCCC[P+](c3ccccc3)(c3ccccc3)c3ccccc3)cc2)C(=O)c2ccccc21,6730
8,O=C1C=C(OCCC[P+](c2ccccc2)(c2ccccc2)c2ccccc2)C(=O)c2ccccc21,40
9,O=C1C(Cc2ccccc2)=C(OCCCCCC[P+](c2ccccc2)(c2ccccc2)c2ccccc2)C(=O)c2ccccc21,49.1
10,CCCC[P+](CCCC)(CCCC)CCCCCCCCCCC1=C(O)C(=O)c2ccccc2C1=O,3860
11,O=C1C(O)=C(CCCCCCCCCC[P+](c2ccccc2)(c2ccccc2)c2ccccc2)C(=O)c2ccccc21,2180
12,CC(=O)OC1=C(c2ccc(OCCCCCCCCCC[P+](c3ccccc3)(c3ccccc3)c3ccccc3)cc2)C(=O)c2ccccc2C1=O,7120
13,O=C1C(Cc2ccccc2)=C(OCCC[P+](c2ccccc2)(c2ccccc2)c2ccccc2)C(=O)c2ccccc21,46.7
14,O=C1C=C(OCCCCCC[P+](c2ccccc2)(c2ccccc2)c2ccccc2)C(=O)c2ccccc21,28.5
15,CC(=O)OC1=C(CCCCC[P+](c2ccccc2)(c2ccccc2)c2ccccc2)C(=O)c2ccccc2C1=O,1900
16,CC1=C(OC(=O)CCC[P+](c2ccccc2)(c2ccccc2)c2ccccc2)C(=O)c2ccccc2C1=O,4600

row,SMILES,IC50 [nM]
1,CCCCCCCCCCC1=C(O)C(=O)c2ccccc2C1=O,339
2,CC1=C(OCCC[n+]2ccccc2)C(=O)c2ccccc2C1=O,167
3,O=C1C(Cc2ccc(Cl)cc2)=C(OCCCCCC[P+](c2ccccc2)(c2ccccc2)c2ccccc2)C(=O)c2ccccc21,49.5
4,CCCCCCCCCCC1=C(C)C(=O)c2ccccc2C1=O,> 10000
5,O=C1C(O)=C([C@H]2CC[C@H](c3ccc(Cl)cc3)CC2)C(=O)c2ccccc21 [ATOVAQUONE],0.5
6,O=C1C(O)=C(c2ccc(OCCCCCCCCCC[P+](c3ccccc3)(c3ccccc3)c3ccccc3)cc2)C(=O)c2ccccc21,6640
7,O=C1C(OCCC[P+](c2ccccc2)(c2ccccc2)c2ccccc2)=C(C2CCCCC2)C(=O)c2ccccc21,42.3
8,CCCCCCCCCCC1=C(OC(C)=O)C(=O)c2ccccc2C1=O,392
9,CC(=O)OC1=C(c2ccc(OCCCC[P+](c3ccccc3)(c3ccccc3)c3ccccc3)cc2)C(=O)c2ccccc2C1=O,5440
10,O=C1C(O)=C(CCCCC[P+](c2ccccc2)(c2ccccc2)c2ccccc2)C(=O)c2ccccc21,4080
11,O=C1C(OCCCCCC[P+](c2ccccc2)(c2ccccc2)c2ccccc2)=C(C2CCCCC2)C(=O)c2ccccc21,47.9
12,C[C@@H]1CC[C@H]2[C@@H](C)C(=O)O[C@@H]3O[C@@]4(C)CC[C@@H]1[C@]32OO4 [ARTEMISININ],18.1
13,CC1=C(OCCC[n+]2ccn(C)c2)C(=O)c2ccccc2C1=O,165
14,O=C1C(O)=C(CCCCCCCCCC[P+](Cc2ccccc2)(Cc2ccccc2)Cc2ccccc2)C(=O)c2ccccc21,3280
15,CC1=C(OCCC[P+](c2ccccc2)(c2ccccc2)c2ccccc2)C(=O)c2ccccc2C1=O,41.9
